Results reported in patent US20250230138A1, “COMPOUNDS HAVING A T-STRUCTURE FORMED BY AT LEAST FOUR CYCLES FOR USE IN THE TREATMENT OF CANCER AND OTHER INDICATIONS” (TheRas, Inc., priority 2022, published 2025).
Like-named read-outs stand apart in the source and are kept apart here.

Assays:
[1] = target: KRAS-PI3Kα interaction (KRAS-Q25A binding to avi-tagged full length PI3Kα) (Homo sapiens (Human), UniProt P42336); experiment: Disrupting KRAS-PI3Kα interaction by SPR inhibition assay; conditions: KRAS-Q25A at 20 μM, 25° C.
Chain of KRAS-PI3Kα interaction (KRAS-Q25A binding to avi-tagged full length PI3Kα) (P42336 whole entry, looked up, stated change not applied): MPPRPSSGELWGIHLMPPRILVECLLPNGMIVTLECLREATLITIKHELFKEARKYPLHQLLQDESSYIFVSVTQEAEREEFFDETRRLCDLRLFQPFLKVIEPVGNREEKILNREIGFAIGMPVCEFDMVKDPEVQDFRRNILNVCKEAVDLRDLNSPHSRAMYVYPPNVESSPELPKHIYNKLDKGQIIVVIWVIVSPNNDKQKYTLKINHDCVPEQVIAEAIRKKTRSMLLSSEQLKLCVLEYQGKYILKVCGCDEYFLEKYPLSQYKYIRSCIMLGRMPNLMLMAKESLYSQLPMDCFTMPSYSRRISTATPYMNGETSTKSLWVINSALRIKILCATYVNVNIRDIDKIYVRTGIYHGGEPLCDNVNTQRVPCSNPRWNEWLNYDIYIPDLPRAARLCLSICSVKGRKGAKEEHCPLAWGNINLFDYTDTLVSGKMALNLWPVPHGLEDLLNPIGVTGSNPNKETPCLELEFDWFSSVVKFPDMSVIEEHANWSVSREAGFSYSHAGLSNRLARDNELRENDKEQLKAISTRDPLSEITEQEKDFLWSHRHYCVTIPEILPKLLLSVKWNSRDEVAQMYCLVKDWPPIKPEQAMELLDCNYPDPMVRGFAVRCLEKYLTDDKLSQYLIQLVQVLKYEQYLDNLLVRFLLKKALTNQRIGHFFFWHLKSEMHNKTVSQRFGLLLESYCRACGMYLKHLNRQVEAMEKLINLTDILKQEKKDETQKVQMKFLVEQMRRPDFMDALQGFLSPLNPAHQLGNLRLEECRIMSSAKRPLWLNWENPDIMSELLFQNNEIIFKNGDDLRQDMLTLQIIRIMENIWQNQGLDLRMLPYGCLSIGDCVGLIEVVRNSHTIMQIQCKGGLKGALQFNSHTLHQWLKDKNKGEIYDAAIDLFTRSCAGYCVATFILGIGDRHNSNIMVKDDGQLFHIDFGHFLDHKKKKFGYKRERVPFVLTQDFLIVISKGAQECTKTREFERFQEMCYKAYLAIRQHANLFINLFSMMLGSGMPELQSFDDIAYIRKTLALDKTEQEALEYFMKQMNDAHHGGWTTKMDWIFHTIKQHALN
Chain of KRAS-PI3Kα interaction (KRAS-Q25A binding to avi-tagged full length PI3Kα) (P27986 whole entry partner, looked up): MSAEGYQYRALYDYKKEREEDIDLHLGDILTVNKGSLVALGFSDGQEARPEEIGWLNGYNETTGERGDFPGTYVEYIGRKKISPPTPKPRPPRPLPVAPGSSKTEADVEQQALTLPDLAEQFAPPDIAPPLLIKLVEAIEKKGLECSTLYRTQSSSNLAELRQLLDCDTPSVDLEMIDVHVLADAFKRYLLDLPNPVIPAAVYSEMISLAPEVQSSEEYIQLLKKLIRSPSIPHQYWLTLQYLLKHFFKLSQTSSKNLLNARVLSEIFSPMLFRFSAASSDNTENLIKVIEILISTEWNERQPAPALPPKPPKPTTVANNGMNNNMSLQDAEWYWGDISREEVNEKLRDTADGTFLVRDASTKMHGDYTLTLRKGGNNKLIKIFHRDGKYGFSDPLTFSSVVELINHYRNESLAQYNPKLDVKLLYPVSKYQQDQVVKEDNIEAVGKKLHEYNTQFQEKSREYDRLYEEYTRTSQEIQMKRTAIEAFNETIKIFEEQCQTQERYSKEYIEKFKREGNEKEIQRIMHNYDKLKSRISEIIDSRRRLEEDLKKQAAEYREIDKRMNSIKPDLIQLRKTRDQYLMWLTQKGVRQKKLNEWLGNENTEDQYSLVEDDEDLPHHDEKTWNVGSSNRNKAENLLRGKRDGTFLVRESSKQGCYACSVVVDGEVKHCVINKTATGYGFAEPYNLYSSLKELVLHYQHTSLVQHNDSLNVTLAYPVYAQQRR
Description: SPR binding experiments were collected on a Biacore 8K Instrument (Cytiva). Neutravidin (Pierce) was amine coupled to the carboxymethylated dextran surface of a CM5 sensor chip (Cytiva) using standard amine coupling chemistry. The CM5 chip surface was first activated with 0.1 M N-hydroxy succinimide and 0.4 M N-ethyl-N′-(3-dimethyl aminopropyl) carbodiimide at a flow rate of 20 μL/min using 20 mM HEPES pH 7.4, 150 mM NaCl as the running buffer. Next, neutravidin was diluted to 20 μg/mL in 10 mM sodium acetate (pH 4.5) and injected on all flow cells until a density of approximately 10,000 response units (RU) was immobilized. Activated amine groups were quenched with an injection of 1 M ethanolamine (pH 8.0). 300-500 RU of avi-tagged full length PI3Kα was captured on all flow cells in 20 mM HEPES pH 7.4, 150 mM NaCl, 5 mM MgCl2, 1 mM TCEP, 0.05% tween 20, 5% DMSO buffer. KRAS-Q25A at 20 μM was mixed with 8 concentrations of compound (50 nM-100 μM) and injected over the full-length PI3Kα at 30 μL/min and 25° C. Steady-state levels of KRAS binding were recorded and fit with a 4-parameter inhibition model to determine the IC50 values.

[2] = tested on: pAKT in Tet-on KRAS G12D HeLa cells; experiment: Cell-based pAKT HTRF assay in Tet-on KRAS G12D HeLa cells; conditions: read-out: pAKT inhibition IC50 in Tet-on KRAS G12D HeLa cells
Description: To determine the effectiveness of compounds in disrupting PIK3CA/KRAS signaling in cells, we implemented pAKT HTRF assay (Perkin-Elmer) in Tet-on KRAS G12D HeLa cells.
On Day 1, cells were seeded into 96-well plates at 2×10^4 cells/well in complete growth media (DMEM, 10% Tet-Screened FBS) supplemented with 200 ng/mL doxycycline.
On Day 2, cells were treated with compounds at 0.25% DMSO. The source plate was created with compounds diluted in media at 5-fold the final assay concentration. The compounds are run in a 9-point concentration curve starting at 75 μM, with a 3-fold dilution between concentrations. […] 20 μL was transferred onto the cell plates (final volume in wells was 100 μL). Plates were harvested after 30 min and 4 hr incubation by aspirating media and adding kit-supplied 1× supplemented lysis buffer to all wells (50 μL per well). This then changed to 4 hr only when compounds became covalent. Plates were then placed on a plate shaker and incubated at 850 rpm for an additional 30 min. The antibody mixture solution was prepared by diluting aliquoted d2 and Eu Cryptate antibodies 1:20 in kit supplied detection buffer, then mixed the diluted antibodies solutions (1:1 v:v). 4 μL of this solution was then added to a 384-well detection plate (Perkin Elmer; 6008230). Samples were homogenized by pipetting up and down and then transferred (16 μL of cell lysates) from the 96-well cell culture plate to two wells of the HTRF 384-well detection plate containing the antibody solution. Plates were centrifuged (524 g for 1 min) and allowed to incubate between 4 and 24 h at room temperature. The maximum signal is reached after 4 h incubation time and remains stable over a period of 24 hours. Therefore, readings can be made between 4 and 24 h of incubation. Plates were centrifuged again (524 g for 1 min), and analyzed on the EnVision plate reader using the following settings: Excitation 320 nm, Bandwidth […]; Emission 615 nm, Bandwidth […], Gain 100%, Flashes 100, Lag 60 μs.

[3] = target: Cys242 in human PIK3CA (157-299) (Homo sapiens (Human), UniProt P42336); experiment: Covalent modification assay using MALDI-TOF MS; format: biochemical; conditions: 4 h reaction time point; 3.33 μM protein target, 1:7.5 protein to compound ratio (compounds 1-852)
Chain of Cys242 in human PIK3CA (157-299) (P42336 157-299): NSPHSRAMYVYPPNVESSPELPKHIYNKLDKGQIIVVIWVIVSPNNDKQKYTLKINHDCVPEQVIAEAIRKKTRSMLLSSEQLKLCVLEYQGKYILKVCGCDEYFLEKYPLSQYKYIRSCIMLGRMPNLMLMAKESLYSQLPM
In short: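 Covalent adduct formation was read by linear-mode MALDI-TOF with sinapinic acid matrix, reported as modified-protein peak height divided by total protein peak heights. Reactions held PIK3CA (157-299) at 1 or 3.33 μM in HEPES/NaCl/MgCl2 buffer, pH 7.3, sampled after 15 min to 4 h at room temperature.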

[4] = tested on: pAKT in BT474 cells; experiment: Cell-based pAKT HTRF assay in BT474 cells; conditions: BT474 cells; 4 hr incubation; Compounds 10-999; read-out: pAKT inhibition IC50 in BT474 cells
In short: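 Compound titration: 3 μM downward in 3-fold steps, nine points, 4 hr on cells. Detection: lysis, then d2 plus Eu Cryptate antibody mix, room-temperature incubation of 4–24 h, and time-resolved fluorescence read at 615 nm.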

Structure (SMILES) | IC50 [1] [µM] | IC50 ([2]; Tet-on KRAS G12D HeLa cells) [µM] | % of modification [3] | IC50 ([2]; Homo sapiens, HeLa) [µM] | IC50 [4] [µM]
CCC(=O)Nc1cccc(-c2nc(-c3ccc4c(c3)CCNC4)c3ccsc3c2-c2ccc(F)cc2OCCOC)c1 [compound 29] | < 5 | 1 to 10 | – | – | –
COCCOc1cc(F)ccc1-c1c(-c2cccc(CNC(=O)C(C)C)c2)nc(-c2ccc3c(c2)CCNC3)c2ccsc12 [compound 14] | 5 to 25 | > 10 | – | – | –
COCCOc1cc(F)ccc1-c1c(-c2cccc(C(=O)NC(C)C)c2)nc(-c2ccc3c(c2)CCNC3)c2ccsc12 [compound 17] | 5 to 25 | 1 to 10 | – | – | –
C=CC(=O)N1CC[C@@H](n2cc(-c3nc(-c4ccc5c(c4)CCNC5)c4ccsc4c3-c3ccc(F)cc3OCCOC)cn2)C1 [compound 46] | 5 to 25 | < 1 | A (percent of modification of PIK3CA protein ≥75%) | – | –
COCCOc1ccccc1-c1c(-c2cccc(Cl)c2)nc(-c2ccc3c(c2)CCNC3)c2ccsc12 [compound 6] | 5 to 25 | 1 to 10 | – | – | –
C=CC(=O)NCc1cccc(-c2nc(-c3ccc4c(c3)CCNC4)c3ccsc3c2-c2ccc(F)cc2OCCOC)c1 [Compound 11, N-[[3-[7-[4-fluoro-2-(2-methoxyethoxy)phenyl]-4-(1,2,3,4-tetrahydroisoquinolin-6-yl)thieno[3,2-c]pyridin-6-yl]phenyl]methyl]prop-2-enamide] | < 5 | – | C (25%≤percent of modification <50%) | 1 to 10 | –
C=CC(=O)N1CC(Cn2cc(-c3nc(-c4ccc5c(c4)CCNC5)c4ccsc4c3-c3ccc(F)cc3OCCOC)cn2)C1 [compound 48] | 5 to 25 | < 1 | – | – | –
C=CC(=O)N1CCC(n2cc(-c3nc(-c4ccc5c(c4)CCNC5)c4ccsc4c3-c3ccc(F)cc3OCCOC)cn2)CC1 [compound 30] | 5 to 25 | < 1 | A (percent of modification of PIK3CA protein ≥75%) | – | –
C=CC(=O)NCc1cccc(-c2nc(-c3ccc4c(c3)CCNC4)c3c(c2-c2ccccc2OCCOC)CCC3)c1 [Compound 1, N-(3-(4-(2-(2-methoxvethoxy)phenyl)-1-(1,2,3,4-tetrahydroisoquinolin-6-yl)-6,7-dihydro-5H-cyclopenta[c]pyridin-3-yl)benzyl)acrylamide] | 5 to 25 | 1 to 10 | D (percent of modification <25%) | – | –
C=CC(=O)NCCc1cccc(-c2nc(-c3ccc4c(c3)CCNC4)c3ccsc3c2-c2ccc(F)cc2OCCOC)c1 [compound 40] | < 5 | 1 to 10 | A (percent of modification of PIK3CA protein ≥75%) | – | –
CCC(=O)NCc1cccc(-c2nc(-c3ccc4c(c3)CCNC4)c3ccsc3c2-c2ccc(F)cc2OCCOC)c1 [compound 9] | 5 to 25 | 1 to 10 | – | – | –
C=CC(=O)N1CCC(n2cc(-c3nc(-c4ccc5c(c4)CCN(C)C5)c4ccsc4c3-c3ccc(F)cc3OCCOC)cn2)C1 (stereo not drawn) [compound 43] | 5 to 25 | < 1 | A (percent of modification of PIK3CA protein ≥75%) | – | –
Fc1ccc(-c2c(-c3ccccc3)nc(-c3ccc4c(c3)CCNC4)c3ccsc23)c(OCc2ncccc2F)c1 [compound 7] | 5 to 25 | 1 to 10 | – | – | –
COCCOc1cc(F)ccc1-c1c(-c2cccc(CNC(=O)C(C)(C)C)c2)nc(-c2ccc3c(c2)CCNC3)c2ccsc12 [compound 18] | < 5 | 1 to 10 | – | – | –
COCCOc1cc(F)ccc1-c1c(-c2cnn(CC(C)(C)C)c2)nc(-c2ccc3c(c2)CCNC3)c2ccsc12 [compound 13] | 5 to 25 | 1 to 10 | – | – | –
C=CC(=O)Nc1cccc(-c2nc(-c3ccc4c(c3)CCC(N(C)C)C4)c3ccsc3c2-c2ccc(F)cc2OCCOC)c1 (stereo not drawn) [compound 36] | < 5 | 1 to 10 | A (percent of modification of PIK3CA protein ≥75%) | – | –
COCCOc1cc(F)ccc1-c1c(-c2cnn(CCC(=O)NC(C)(C)C)c2)nc(-c2ccc3c(c2)CCNC3)c2ccsc12 [compound 41] | 5 to 25 | 1 to 10 | – | – | –
COCCOc1cc(F)ccc1-c1c(-c2cccc(CNC(=O)CC(C)(C)C)c2)nc(-c2ccc3c(c2)CCNC3)c2ccsc12 [compound 19] | < 5 | > 10 | – | – | –
C=CC(=O)Nc1cccc(-c2nc(-c3ccc4c(c3)CCN(C)C4)c3ccsc3c2-c2ccc(F)cc2OCCOC)c1 [compound 32] | 5 to 25 | < 1 | A (percent of modification of PIK3CA protein ≥75%) | – | –
COCCOc1cc(F)ccc1-c1c(-c2cccc(C#N)c2)nc(-c2ccc3c(c2)CCNC3)c2ccsc12 [Compound 8] | > 25 | > 10 | – | – | –
C=CC(=O)N1CC[C@H](n2cc(-c3nc(-c4ccc5c(c4)CNC(=O)C5)c4ccsc4c3-c3ccc(F)cc3OCCOC)cn2)C1 [compound 54] | 5 to 25 | – | A (percent of modification of PIK3CA protein ≥75%) | – | < 0.1
C=CC(=O)N1CC[C@H](n2cc(-c3nc(-c4cnn(C)c4)c4ccsc4c3-c3ccc(F)cc3OCCOC)cn2)C1 [compound 53] | 5 to 25 | – | A (percent of modification of PIK3CA protein ≥75%) | – | 0.1 to 1
COCCOc1cc(F)ccc1-c1c(-c2cccc(CNC(=O)C(C)C)c2)nc(-c2ccc3c(c2)CCNC3)c2ccsc12 [compound 10] | < 5 | 1 to 10 | – | – | 1 to 3
COCCOc1cc(F)ccc1-c1c(-c2cccc(CN)c2)nc(-c2ccc3c(c2)CCNC3)c2ccsc12 [compound 16] | 5 to 25 | 1 to 10 | – | – | –
COCCOc1cc(F)ccc1-c1c(-c2cccc(NC(=O)C(C)C)c2)nc(-c2ccc3c(c2)CCNC3)c2ccsc12 [compound 33] | < 5 | 1 to 10 | – | – | –
COCCOc1cc(F)ccc1-c1c(-c2cccc(C(=O)N3CCCC3)c2)nc(-c2ccc3c(c2)CCNC3)c2ccsc12 [compound 15] | < 5 | 1 to 10 | – | – | –
